In ChEMBL document CHEMBL3044994, “Synthesis and evaluation of novel carbamate-substituted flavanone derivatives as potent acetylcholinesterase inhibitors and anti-amnestic agents” (Med Chem Res, 2013):
The source made the active and inactive calls. The rule behind the calls is not given here.

Tests used:
Acetylcholinesterase = biological target: T1, Acetylcholinesterase (Rattus norvegicus, UniProt P37136); experiment: Inhibition of AchE in Rattus norvegicus (rat) cortex homogenates by Ellman's method
T1 sequence (P37136 whole entry): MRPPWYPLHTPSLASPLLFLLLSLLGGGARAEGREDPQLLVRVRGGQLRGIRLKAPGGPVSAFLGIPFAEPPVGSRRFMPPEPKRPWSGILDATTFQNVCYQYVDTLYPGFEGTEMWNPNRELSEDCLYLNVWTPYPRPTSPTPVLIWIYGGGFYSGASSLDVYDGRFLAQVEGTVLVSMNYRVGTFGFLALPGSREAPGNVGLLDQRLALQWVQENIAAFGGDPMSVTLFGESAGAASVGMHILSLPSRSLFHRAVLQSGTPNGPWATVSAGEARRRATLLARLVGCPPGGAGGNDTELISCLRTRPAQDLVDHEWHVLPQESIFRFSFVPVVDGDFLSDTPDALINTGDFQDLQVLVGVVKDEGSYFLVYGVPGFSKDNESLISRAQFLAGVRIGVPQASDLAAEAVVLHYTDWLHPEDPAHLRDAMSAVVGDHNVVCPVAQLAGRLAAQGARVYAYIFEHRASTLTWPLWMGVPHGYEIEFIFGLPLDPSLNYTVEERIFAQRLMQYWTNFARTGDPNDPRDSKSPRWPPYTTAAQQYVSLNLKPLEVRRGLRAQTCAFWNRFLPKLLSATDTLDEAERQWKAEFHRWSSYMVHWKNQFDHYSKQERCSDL

Mus musculus [1] = experiment: (§1) Antiamnestic activity in scopolamine-induced Swiss albino Mus musculus (mouse) memory deficit model assessed as increase in time spent in target quadrant at 25 mg/kg, ip administered 30 min prior to scopolamine challenge measured on day 5 by Morris water maze test relative to vehicle-treated control; format: functional, organism-based; parameters: dose 25 mg/kg
Mus musculus [2] = experiment: as §1, with “2 to 10” for “25”; format: functional, organism-based
Mus musculus [3] = experiment: Antiamnestic activity in scopolamine-induced Swiss albino Mus musculus (mouse) memory deficit model assessed as escape latency time at 2 mg/kg, ip administered 30 min prior to scopolamine challenge measured on day 4 by Morris water maze test (reference value: 78.7 +/- 5.7 secs); format: functional; conditions: route intraperitoneal
Mus musculus [4] = experiment: Antiamnestic activity in scopolamine-induced Swiss albino Mus musculus (mouse) memory deficit model assessed as escape latency time at 10 mg/kg, ip administered 30 min prior to scopolamine challenge measured on day 4 by Morris water maze test (reference value: 78.7 +/- 5.7 secs); format: functional; conditions: route intraperitoneal
Mus musculus [5] = experiment: Antiamnestic activity in scopolamine-induced Swiss albino Mus musculus (mouse) memory deficit model assessed as escape latency time at 2 mg/kg, ip administered 30 min prior to scopolamine challenge measured on day 1 by Morris water maze test (reference value: 89.7 +/- 3.8 secs); format: functional; conditions: route intraperitoneal
Mus musculus [6] = experiment: Antiamnestic activity in scopolamine-induced Swiss albino Mus musculus (mouse) memory deficit model assessed as escape latency time at 5 mg/kg, ip administered 30 min prior to scopolamine challenge measured on day 1 by Morris water maze test (reference value: 89.7 +/- 3.8 secs); format: functional; conditions: route intraperitoneal
Mus musculus [7] = experiment: Antiamnestic activity in scopolamine-induced Swiss albino Mus musculus (mouse) memory deficit model assessed as escape latency time at 10 mg/kg, ip administered 30 min prior to scopolamine challenge measured on day 1 by Morris water maze test (reference value: 89.7 +/- 3.8 secs); format: functional; conditions: route intraperitoneal
Mus musculus [8] = experiment: Antiamnestic activity in scopolamine-induced Swiss albino Mus musculus (mouse) memory deficit model assessed as escape latency time at 5 mg/kg, ip administered 30 min prior to scopolamine challenge measured on day 4 by Morris water maze test (reference value: 78.7 +/- 5.7 secs); format: functional; conditions: route intraperitoneal

Compound	IC50 (Acetylcholinesterase) [nM]	other results
O=C1CC(c2ccccc2O)Oc2ccccc21 (stereo unspecified) [2'-HYDROXY-FLAVANONE]	149	–
COc1cc(OC)c2c(c1)OC(c1ccc(OC(=O)Nc3ccccc3)c(OC)c1)CC2=O (stereo unspecified)	12.8	–
COc1cc(C2CC(=O)c3ccccc3O2)cc([N+](=O)[O-])c1O (stereo unspecified)	144	–
COc1cc(C2CC(=O)c3ccccc3O2)ccc1OC(=O)Nc1ccccc1 (stereo unspecified)	21.9	–
COc1cc(C2CC(=O)c3ccccc3O2)ccc1O (stereo unspecified)	138	–
COc1cc(OO)cc2c1C(=O)CC(c1ccccc1OC(=O)Nc1ccccc1)O2 (stereo unspecified)	21.5	–
COc1cc(C2CC(=O)c3ccccc3O2)cc([N+](=O)[O-])c1OC(=O)Nc1ccccc1 (stereo unspecified)	30.5	–
O=C(Nc1ccccc1)Oc1cccc(C2CC(=O)c3ccccc3O2)c1 (stereo unspecified)	38.8	–
COc1cc(OC)c2c(c1)OC(c1cccc(OC(=O)Nc3ccccc3)c1)CC2=O (stereo unspecified)	19.6	–
COc1cc2c(cc1OC)C(=O)C(CC1CCN(Cc3ccccc3)CC1)C2 (stereo unspecified)	–	Activity (Mus musculus [1]): Active
COc1cc(OC)c2c(c1)OC(c1ccccc1O)CC2=O (stereo unspecified)	120	–
COc1ccc(C2CC(=O)c3ccccc3O2)cc1O (stereo unspecified)	140	–
COc1cc(OC)c2c(c1)OC(c1cc(OC)c(OC(=O)Nc3ccccc3)c([N+](=O)[O-])c1)CC2=O (stereo unspecified)	18.2	–
O=C1CC(c2ccc(O)cc2)Oc2ccccc21 (stereo unspecified) [4'-HYDROXY-FLAVANONE]	145	–
COc1cc(C2CC(=O)c3ccccc3O2)cc(OC)c1OC(=O)Nc1ccccc1 (stereo unspecified)	19.3	–
COc1cc(C2CC(=O)c3ccccc3O2)cc(OC)c1O (stereo unspecified)	131	–
COc1cc(OC)c2c(c1)OC(c1ccc(O)cc1)CC2=O (stereo unspecified)	118	–
COc1cc(OC)c2c(c1)OC(c1ccc(O)c(OC)c1)CC2=O (stereo unspecified)	112	–
O=C1CC(c2cccc(O)c2)Oc2ccccc21 (stereo unspecified) [3'-HYDROXYFLAVANONE]	147	–
COc1cc(OC)c2c(c1)OC(c1cccc(O)c1)CC2=O (stereo unspecified)	119	–
COc1cc(OC)c2c(c1)OC(c1cc(OC)c(OC(=O)Nc3ccccc3)c(OC)c1)CC2=O (stereo unspecified)	9.9	Activity (Mus musculus [2]): Active; Time (Mus musculus [3]): 72.1 s; Time (Mus musculus [4]): 45.4 s; Time (Mus musculus [5]): 84.3 s; Time (Mus musculus [6]): 87.5 s; Time (Mus musculus [7]): 83.1 s; Time (Mus musculus [8]): 66.4 s
COc1cc(OC)c2c(c1)OC(c1ccc(OC)c(OC(=O)Nc3ccccc3)c1)CC2=O (stereo unspecified)	16.3	–
COc1cc(OC)c2c(c1)OC(c1ccc(OC(=O)Nc3ccccc3)cc1)CC2=O (stereo unspecified)	18.8	–
O=C(Nc1ccccc1)Oc1ccc(C2CC(=O)c3ccccc3O2)cc1 (stereo unspecified)	36.7	–
O=C(Nc1ccccc1)Oc1ccccc1C1CC(=O)c2ccccc2O1 (stereo unspecified)	39.9	–
COc1cc(OC)c2c(c1)OC(c1cc(OC)c(O)c(OC)c1)CC2=O (stereo unspecified)	107	–
COc1cc(OC)c2c(c1)OC(c1cc(OC)c(O)c([N+](=O)[O-])c1)CC2=O (stereo unspecified)	116	–
COc1ccc(C2CC(=O)c3ccccc3O2)cc1OC(=O)Nc1ccccc1 (stereo unspecified)	27.6	–
COc1cc(OC)c2c(c1)OC(c1ccc(OC)c(O)c1)CC2=O (stereo unspecified)	114	–
